What is called Kd is a measure of binding affinity in units of concentration.

The assay addresses T1, C32S Grb2 N-SH3 (Homo sapiens, UniProt P62993, C32S).
T1 construct: encoding residues 2–59 of human Grb2; His6 (N); host or cells: E. coli Rosetta DE3 (Novagen)
Kind of assay: 1HN,15N-HSQC NMR titration, noncovalent binding.

T1 sequence (P62993 2-59 C32S): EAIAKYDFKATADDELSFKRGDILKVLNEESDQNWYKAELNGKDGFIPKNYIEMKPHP
Source text: For quantitative analysis, we have selected a group of 8 well-resolved peaks showing substantial titration effects. The two-dimensional HSQC titration data for these peaks have been fitted using the program TITAN[39] on per-residue basis, as well as collectively (illustrated in Fig. 1D; for complete summary see Fig. S1).
pET-28 vectors for Grb2 N-SH3 (WT and C32S) encoding residues 2–59 of human Grb2 have been purchased from GenScript. The protein additionally containing N-terminal His6-tag was expressed in Rosetta DE3 cells (Novagen) using minimal M9 media. ^15N-NH4Cl and ^13C-glucose supplements have been used for isotope labeling. Protein expression was induced when OD600 reached 0.8. After 16 hours of incubation at 37 °C, cells were harvested, suspended in the standard lysis buffer (containing 2 mM of DTT) and then homogenized by SPEX SamplePrep 6870 Freezer/Mill followed by three rounds of sonication on ice. The sample was purified using Ni-affinity and size-exclusion chromatography (columns GE HisTrap HP and GE Sephacryl S-200 HR).
All measurements were conducted at 25 °C using 500 MHz Bruker Avance III spectrometer equipped with TBI room temperature probe. […] The buffer additionally contained 150 mM NaCl.
The peptide concentration was incremented from 0 to 160 μM in a step of 20 μM and then brought to 240 μM. […] The results were analyzed using the program TITAN[39].

As for `CC(C)[C@H](N)C(=O)N1CCC[C@H]1C(=O)N1CCC[C@H]1C(=O)N1CCC[C@H]1C(=O)N[C@H](C(=O)N1CCC[C@H]1C(=O)N1CCC[C@H]1C(=O)N[C@@H](CCCNC(=N)N)C(=O)N[C@@H](CCCNC(=N)N)C(=O)N[C@@H](CCCNC(=N)N)C(=O)N[C@@H](CCCCNC(=O)CCl)C(=O)O)C(C)C` [Sos1-X′], the affinity, expressed as Kd, was 4.9 µM.
